Measurements from patent US10669287B2, “Curcumin-boron complex and pharmaceutical containing same” (JAPAN SCIENCE AND TECHNOLOGY AGENCY, priority 2016, dated 2020).

Tests used:
[1] = test system: PC 12 cells; assay: Cytotoxicity under light irradiation, WST-8 cell viability, Test Example 2; type: cell-based, rat; settings: LED 660 nm, 10 mW, 5 minutes, then 48 hours
Procedure: A culture medium for rat adrenal medulla-derived pheochromocytoma PC 12 cells (purchased from RIKEN, Japan) seeded on a poly-D-lysine-coated 96-well plate was replaced with 75 μL of a Dulbecco's modified Eagle's medium containing 0.1% horse serum, and the culture was incubated in a 5% CO2 atmosphere at 37° C. for 1 day, and 25 μL of a phosphate buffer saline (pH 7.4) containing a inventive compound was then added thereto. Thereafter, the mixed solution was incubated under LED irradiation (wavelength: 660 nm, 10 mW) (without light irradiation for dark) at 37° C. for 5 minutes. Further, the cell culture plate containing the reaction solution was incubated in a 5% CO2 atmosphere at 37° C. for 48 hours. Finally, the Cell Count Reagent SF (10 μL: purchased from NACALAI TESQUE, INC.) containing WST-8 was added, and the culture was incubated in a 5% CO2 atmosphere at 37° C. for 3 hours, and thereafter the cell viability was determined from the absorbance at 450 nm (reference wavelength: 655 nm).

[2] = test system: Arctic Aβ1-42; assay: Oxygenation reaction in mouse brain extract, Test Example 6; type: biochemical; settings: mouse brain lysate, light 780 nm
Procedure: The brain excised from an eight-month-old App knock-in (App^NL-C-F/NL-C-F) mouse (Alzheimer's model mouse) was separated into the cerebral cortex, the hippocampus, and the residual brain tissues. The cerebral cortex and the hippocampus were homogenized together in a phosphate buffer saline, and the suspension was stored at −80° C. […] At an arbitrary point of time, an arbitrary aliquot of the reaction mixture was diluted with formic acid to a final concentration of 70%, concentrated, and redissolved in a 6 M aqueous solution of urea.

[3] = target: T1, Aβ1-42 (Homo sapiens, UniProt P05067); assay: Oxygenation under mouse skin, Test Example 7; type: in vivo; settings: microtube with Aβ1-42 20 μM aggregated 3 hours, implanted in back skin, LED 780 nm, 30 minutes
T1 construct: phosphate buffer (pH 7.4)/cell culture solution (containing 0.1% horse serum) (1:3) containing Aβ1-42 (10 μM)
Procedure: A microtube containing a phosphate buffer containing Aβ1-42 (20 μM, aggregated in advance for 3 hours) and the compound E or a compound 3 [9-(6-bromo-3-methyl-1,3-benzotriazol-3-ium-2-yl)-julolidine] was implanted in the back skin of a wild mouse, and light irradiation with an LED lamp was performed from the outside of the mouse body at a wavelength of 780 nm for 30 minutes (FIG. 10). As a control experiment, another microtube containing the same components (Aβ1-42 (20 μM, aggregated in advance for 3 hours) and the compound E or the compound 3) was directly subjected to light irradiation outside of the mouse body. The reaction mixture was analyzed by using a MALDI-TOF MS, and then subjected to ZipTip treatment for analysis. The percentage of oxygenation ratio was calculated from the percentage of oxygenation ratio under the skin and the oxygenation ratio outside of the skin “[oxygenation ratio under mouse skin/oxygenation ratio outside of mouse skin]×100”.

[4] = Conversion of furfuryl alcohol under different glycerol concentrations, Test Example 8; settings: compound 2 μM, furfuryl alcohol 2 mM, glycerol-methanol 0, 10, 30, or 50% glycerol, 780 nm, room temperature
Procedure: To a glycerol-methanol mixed solvent (glycerol: 0, 10, 30, or 50%), furfuryl alcohol or N-benzoyl-Met (2 mM in each case) and the compound E (2 μM) were added, and the mixture was subjected to light irradiation (wavelength: 780 nm) at room temperature, and the concentration of furfuryl alcohol or N-benzoyl-Met was quantified by using a UV absorptiometer with LC/MS 10 minutes, 20 minutes, and 30 minutes after the initiation of light irradiation.

[5] = target: T2, Aβ peptide (Homo sapiens, UniProt P05067); assay: Aβ selectivity of oxygenation, Test Example 9; type: biochemical; settings: peptide 20 μM, catalyst 5 μM (25 mol %), 780 nm (7 mW), 37° C., 30 minutes
T2 construct: Aβ1-42 isopeptide (concentration: 250 μM in 0.1% aqueous solution of trifluoroacetic acid)
Procedure: (§1) Aβ1-42 isopeptide (concentration: 250 μM in 0.1% aqueous solution of trifluoroacetic acid), angiotensin IV (200 μM aqueous solution), Met-enkephalin (200 μM aqueous solution), and somatostatin (200 μM aqueous solution) were added to a phosphate buffer or phosphate buffer saline (pH 7.4) (with 0.1 M aqueous solution of sodium hydroxide, as necessary) so that a final peptide concentration of 20 μM or 40 μM (pH 7.4) was reached. Before being subjected to oxygenation reaction, the Aβ1-42 solution was incubated at 37° C. for 1 to 3 hours. The phosphate buffer containing 40 μM of Aβ was diluted with a Dulbecco's modified Eagle's medium (DMEM, Life Technologies) containing 0.1% horse serum and buffered with 25 mM of 4-(2-hydroxyethyl)-1-piperazineethanesulfonic acid (HEPES).
(§2) Solutions of the compounds with a final concentration of 2 μM were used for evaluation of oxygenation of Aβ1-42. Solutions of the compounds with a final concentration of 5 μM were used for evaluation of peptide selectivity. […] A control group without light irradiation was additionally prepared. Reaction was analyzed through monitor analysis with a MALDI-TOF MS. Degree of oxygenation was determined as a ratio: degree of oxygenation (%)=(total of MS intensities for n[O] adducts)/(MS intensity for native+total of MS intensities for n[O] adducts)×100. Aliquots of each reaction solution were desalted with a ZipTip U-C18 (Merck Millipore), as necessary, before mass spectrometry.

[6] = target: T3, Met-enkephalin (ME) (Homo sapiens, UniProt P01210); assay: Aβ selectivity of oxygenation, Test Example 9; type: biochemical; settings: peptide 20 μM, catalyst 5 μM, 780 nm (7 mW), 37° C., 30 minutes
T3 construct: angiotensin-IV (AT4), Met-enkephalin (ME), or somatostatin (Sst) (20 μM in each case)
Procedure: as §1, §2

[7] = target: T4, angiotensin-IV (AT4) (Homo sapiens, UniProt P01019); assay: Aβ selectivity of oxygenation, Test Example 9; type: biochemical; settings: peptide 20 μM, catalyst 5 μM, 780 nm (7 mW), 37° C., 30 minutes
T4 construct: angiotensin-IV (AT4), Met-enkephalin (ME), or somatostatin (Sst) (20 μM in each case)
Procedure: as §1, §2

[8] = target: T5, somatostatin (Sst) (Homo sapiens, UniProt P61278); assay: Aβ selectivity of oxygenation, Test Example 9; type: biochemical; settings: peptide 20 μM, catalyst 5 μM, 780 nm (7 mW), 37° C., 30 minutes
T5 construct: angiotensin-IV (AT4), Met-enkephalin (ME), or somatostatin (Sst) (20 μM in each case)
Procedure: as §1, §2

[9] = target: T1, Aβ1-42; assay: Degree of oxygenation of pre-aggregated Aβ1-42 (MALDI-TOF MS), Test Example 10; type: biochemical; settings: pre-aggregated Aβ1-42 20 μM, catalyst 2 μM, phosphate buffer pH 7.4, 780 nm (14 mW), 37° C., 30 minutes
Procedure: as §1
Solutions of the compounds with a final concentration of 2 μM were used for evaluation of oxygenation of Aβ1-42. Solutions of the compounds with a final concentration of 5 μM were used for evaluation of peptide selectivity. Each mixture was subjected to light irradiation with an LED (wavelength: 500, 660, or 780 nm) at a distance of approximately 5 to 10 cm at room temperature. A control group without light irradiation was additionally prepared. Reaction was analyzed through monitor analysis with a MALDI-TOF MS. Degree of oxygenation was determined as a ratio: degree of oxygenation (%)=(total of MS intensities for n[O] adducts)/(MS intensity for native+total of MS intensities for n[O] adducts)×100. Aliquots of each reaction solution were desalted with a ZipTip U-C18 (Merck Millipore), as necessary, before mass spectrometry.
a: A phosphate buffer (pH 7.4) solution containing pre-aggregated Aβ1-42 (20 μM, incubated at 37° C. for 3 hours) and a catalyst (2 μM) was subjected to light irradiation (wavelength: 660 nm) at 37° C. for 30 minutes. Thereafter, the reaction mixture was analyzed by using a MALDI-TOF MS.
a: A phosphate buffer (pH 7.4) containing pre-aggregated Aβ1-42 (20 μM, obtained through incubation at 37° C. for 3 hours) and a catalyst (2 μM) were subjected to light irradiation at 780 nm (14 mW) at 37° C. for 30 minutes. The reaction mixture was analyzed by using a MALDI-TOF MS.

T1 sequence (P05067 672-713): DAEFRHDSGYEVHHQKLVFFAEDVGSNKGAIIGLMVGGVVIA
T2 sequence (P05067 672-713): as above

Structure (SMILES): O=C(O)CCCCCN1CCCc2cc(/C=C/C3=[O+][B-](F)(C(F)(F)C(F)(F)F)OC(/C=C/c4cc5c6c(c4)CCCN6CCC5)=C3Br)ccc21 (centres unmarked) [Compound E]
- toxicity under light irradiation (ranking) [1]: the lowest
- decrease of peak intensity (conversion) of Arctic Aβ1-42 ([2]; 30 minutes): 43%
- decrease of peak intensity (conversion) of Arctic Aβ1-42 ([2]; 60 minutes): 60%
- decrease of peak intensity (conversion) of Arctic Aβ1-42 ([2]; 150 minutes): 83%
- percentage of oxygenation ratios [oxygenation ratio under mouse skin/oxygenation ratio outside of mouse skin]×100 [3]: 65%
- oxygenation reaction rate of furfuryl alcohol [4]: higher as the viscosity of the solvent was higher
- oxygenation of pre-aggregated Aβ peptide [5]: 44%
- oxygenation rate of Met-enkephalin [6]: lower than 5%
- oxygenation rate of angiotensin-IV [7]: lower than 5%
- oxygenation rate of somatostatin [8]: lower than 5%
- Degree of oxygenation (%) of Aβ42 (λ = 780 nm) [9]: 58%
